From patent US20040106626A1, “6-Membered unsaturated heterocyclic compounds useful for selective inhibition of the coagulation cascade” (Pharmacia Corporation, priority 2001, published 2004)
pIC50: −log10 of the molar value.

Legend:
Format in all cases: biochemical
Human thrombin = molecular target: T1, Human thrombin (Homo sapiens, UniProt P00734); assay: Thrombin assay (chromogenic substrate); conditions: reported only as less than or greater than 30 uM; read-out: Thrombin (II) IC50
T1 construct: converts prothrombin (II) to thrombin (IIa); purchased Calbiochem, La Jolla, Calif
Outline: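 Percent inhibition derived by comparing OD405 nm of compound-treated and control samples. Thrombin cleavage of a p-nitroanilide chromogenic substrate provides the signal.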

Human factor Xa = molecular target: T2, Human factor Xa (Homo sapiens, UniProt P00742); assay: Xa assay (chromogenic substrate S-2765); conditions: reported only as less than or greater than 30 uM; read-out: Factor Xa (II) IC50
T2 construct: purchased Enzyme Research Laboratories, South Bend Ind
Outline: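 Chromogenic readout: S-2765 hydrolysis (0.15 mM) by 0.3 nM human FXa was monitored at 405 nm after 60 min at room temperature, with a time-zero background read. Buffer: 50 mM Tris-HCl, pH 8.0, 100 mM NaCl, 0.1% BSA. Inhibition is relative to buffer-only controls.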

[1] = tested on: Normal human pooled plasma; assay: Prothrombin time (PT) clotting assay; conditions: concentration at which prothrombin time is prolonged by 2x normal, reported as less than or greater than 50 uM
Outline: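 Normal human pooled plasma incubated with 100 uM compound or saline, then thromboplastin (human tissue factor) added and clotting time recorded in a coagulation machine. Compounds exceeding 3× normal PT (11.0 s) are titrated to find the concentration doubling PT.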

[2] = molecular target: T3, recombinant soluble tissue factor and recombinant human factor VIIa (TF-VIIa) (Homo sapiens, UniProt P08709); assay: TF-VIIa assay (chromogenic substrate hydrolysis); conditions: reported only as less than or greater than 0.1 uM
T3 construct: conversion of coagulation factor VII to VIIa by factor Xa; purchased American Diagnostica, Greenwich CT; host or cells: soluble TF made in house in E. coli
Outline: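 Chromogenic read at OD405, compared with control for percent inhibition. Substrate N-methylsulfonyl-D-phe-gly-arg-p-nitroaniline at 0.4 mM is cleaved by recombinant human VIIa (2 nM) complexed with soluble TF (100 nM). Buffer: pH 8.0 Tris-HCl 50 mM, CaCl2 5 mM, NaCl 100 mM, BSA 0.1%.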

T3 sequence (P08709 213-466 limits assumed): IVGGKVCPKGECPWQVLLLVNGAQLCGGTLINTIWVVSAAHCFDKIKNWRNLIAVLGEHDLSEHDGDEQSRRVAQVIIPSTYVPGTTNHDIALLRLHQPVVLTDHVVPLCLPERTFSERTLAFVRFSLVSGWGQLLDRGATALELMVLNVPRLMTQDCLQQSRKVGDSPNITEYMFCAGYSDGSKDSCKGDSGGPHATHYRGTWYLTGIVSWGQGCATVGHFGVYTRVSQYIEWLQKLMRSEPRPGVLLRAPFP
T3 sequence (P08709 61-212 limits assumed): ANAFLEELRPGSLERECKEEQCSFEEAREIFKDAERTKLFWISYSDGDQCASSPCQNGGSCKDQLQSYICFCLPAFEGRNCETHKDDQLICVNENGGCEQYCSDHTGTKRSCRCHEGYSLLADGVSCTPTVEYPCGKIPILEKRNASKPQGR
T3 sequence (P13726 33-251 partner limits assumed): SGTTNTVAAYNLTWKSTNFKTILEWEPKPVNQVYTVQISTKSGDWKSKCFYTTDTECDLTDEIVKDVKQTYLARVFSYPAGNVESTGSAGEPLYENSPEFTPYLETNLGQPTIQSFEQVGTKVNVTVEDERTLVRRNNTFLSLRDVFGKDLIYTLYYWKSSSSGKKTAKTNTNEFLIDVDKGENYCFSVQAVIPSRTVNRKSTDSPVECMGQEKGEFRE
T2 sequence (P00742 235-488 limits assumed): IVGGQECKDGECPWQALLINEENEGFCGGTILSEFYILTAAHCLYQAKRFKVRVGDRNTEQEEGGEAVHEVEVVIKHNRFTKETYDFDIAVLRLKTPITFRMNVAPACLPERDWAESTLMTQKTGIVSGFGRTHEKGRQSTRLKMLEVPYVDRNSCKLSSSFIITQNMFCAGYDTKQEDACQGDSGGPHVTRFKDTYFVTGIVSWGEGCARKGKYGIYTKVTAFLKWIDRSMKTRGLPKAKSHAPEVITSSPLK
T2 sequence (P00742 41-179 limits assumed): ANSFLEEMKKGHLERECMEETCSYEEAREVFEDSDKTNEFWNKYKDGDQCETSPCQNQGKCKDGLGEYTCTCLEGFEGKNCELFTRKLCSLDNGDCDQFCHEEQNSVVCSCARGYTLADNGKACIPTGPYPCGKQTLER

Compound | pIC50 (Human thrombin) | pIC50 (Human factor Xa) | PT (Prothrombin time) 2xPT [1] [µM] | pIC50 [2]
CC(CC(=O)Nc1cc(N)cc(-c2cnc(NC(C)C)c(=O)n2CC(=O)NCc2ccc(C(=N)N)cc2)c1)CC(C)(C)C.O=C(O)C(F)(F)F.O=C(O)C(F)(F)F (stereo not drawn) [Example 139] | > 4.52 | < 4.52 | <50.0 | > 7.00
CC(C)Nc1ncc(-c2cc(N)cc(NC(=O)[C@H]3C[C@@H]3c3ccccc3)c2)n(CC(=O)NCc2ccc(C(=N)N)cc2)c1=O.O=C(O)C(F)(F)F.O=C(O)C(F)(F)F [Example 140] | > 4.52 | < 4.52 | <50.0 | > 7.00
CC(C)Nc1ncc(-c2cc(N)cc(NC(=O)CC3CCCC3)c2)n(CC(=O)NCc2ccc(C(=N)N)cc2)c1=O.O=C(O)C(F)(F)F.O=C(O)C(F)(F)F [Example 141] | > 4.52 | < 4.52 | <50.0 | > 7.00
CC(C)Nc1ncc(-c2cc(N)cc(NC(=O)c3ccc(N(C)C)cc3)c2)n(CC(=O)NCc2ccc(C(=N)N)cc2)c1=O.O=C(O)C(F)(F)F.O=C(O)C(F)(F)F [Example 142] | < 4.52 | < 4.52 | <50.0 | > 7.00
CCC(C(=O)Nc1cc(N)cc(-c2cnc(NC(C)C)c(=O)n2CC(=O)NCc2ccc(C(=N)N)cc2)c1)c1ccccc1.O=C(O)C(F)(F)F.O=C(O)C(F)(F)F (stereo not drawn) [Example 143] | > 4.52 | < 4.52 | <50.0 | > 7.00
CC(C)Nc1ncc(-c2cc(N)cc(NC(=O)C3CC3)c2)n(CC(=O)NCc2ccc(C(=N)N)cc2)c1=O.O=C(O)C(F)(F)F.O=C(O)C(F)(F)F [Example 144] | < 4.52 | < 4.52 | <50.0 | > 7.00
CC(C)Nc1ncc(-c2cc(N)cc(C(=O)NCc3ccccc3)c2)n(CC(=O)NCc2ccc(C(=N)N)c(O)c2)c1=O.O=C(O)C(F)(F)F [Example 161, 3-amino-5-[1-[2-({4-[amino(imino)methyl]-3-hydroxybenzyl}amino)-2-oxoethyl]-5-(isopropylamino)-6-oxo-1,6-dihydropyrazin-2-yl]-N-benzylbenzamide] | < 4.52 | < 4.52 | <50.0 | > 7.00
CC(C)Nc1ncc(-c2cc(N)cc(C(=O)NCc3ccc(F)cc3)c2)n(CC(=O)NCc2ccc(C(=N)N)c(O)c2)c1=O.O=C(O)C(F)(F)F [Example 162, 3-amino-5-[1-[2-({4-[amino(imino)methyl]-3-hydroxybenzyl}amino)-2-oxoethyl]-5-(isopropylamino)-6-oxo-1,6-dihydropyrazin-2-yl]-N-(4-fluorobenzyl) benzamide] | < 4.52 | < 4.52 | <50.0 | > 7.00
CC[C@H](C)NC(=O)c1cc(N)cc(-c2cnc(NC(C)C)c(=O)n2CC(=O)NCc2c(F)c(O)c(C(=N)N)c(F)c2F)c1.Cl.Cl [Example 164] | < 4.52 | < 4.52 | <50.0 | > 7.00
COC(=O)CCNC(=O)c1cc(N)cc(-c2cnc(NC(C)C)c(=O)n2CC(=O)NCc2ccc(C(=N)N)cc2)c1 [Example 165] | < 4.52 | < 4.52 | <50.0 | > 7.00
CC(C)Nc1ncc(-c2cc(N)cc(C(=O)NCc3cccc(O)c3)c2)n(CC(=O)NCc2ccc(C(=N)N)cc2)c1=O [Example 166] | < 4.52 | < 4.52 | <50.0 | > 7.00
CC[C@H](C)NC(=O)c1cc(N)cc(-c2cnc(NC(C)C)c(=O)n2CC(=O)NCc2ccc(C(=N)N)cc2O)c1.O=C(O)C(F)(F)F [Example 167, 3-amino-5-[1-[2-({4-[amino(imino)methyl]-2-hydroxybenzyl}amino)-2-oxoethyl]-5-(isopropylamino)-6-oxo-1,6-dihydropyrazin-2-yl]-N-[(1S)-1-methylpropyl]benzamide] | > 4.52 | < 4.52 | <50.0 | > 7.00
COC(=O)c1ccc(CNC(=O)c2cc(N)cc(-c3cnc(NC(C)C)c(=O)n3CC(=O)NCc3ccc(C(=N)N)cc3)c2)cc1.O=C(O)C(F)(F)F [Example 169] | > 4.52 | < 4.52 | <50.0 | > 7.00
Cc1cc(N)cc(-c2cnc(NC(C)C)c(=O)n2CC(=O)NCc2ccc(C(=N)N)cc2)c1.Cl.Cl [Example 170] | < 4.52 | < 4.52 | <50.0 | > 7.00
CC(C)Nc1ncc(-c2cc(N)cc(C(=O)NCc3ccc(C(=O)O)cc3)c2)n(CC(=O)NCc2ccc(C(=N)N)cc2)c1=O.O=C(O)C(F)(F)F.O=C(O)C(F)(F)F [Example 171] | < 4.52 | < 4.52 | <50.0 | > 7.00
CC(C)Nc1ncc(-c2cc(N)cc(C(=O)NCCC(=O)O)c2)n(CC(=O)NCc2ccc(C(=N)N)cc2)c1=O.O=C(O)C(F)(F)F.O=C(O)C(F)(F)F [Example 172] | < 4.52 | < 4.52 | <50.0 | > 7.00
COc1ccc(CNC(=O)c2cc(N)cc(-c3cnc(NC(C)C)c(=O)n3CC(=O)NCc3ccc(C(=N)N)cc3)c2)cc1.O=C(O)C(F)(F)F.O=C(O)C(F)(F)F [Example 174] | < 4.52 | < 4.52 | <50.0 | > 7.00
CC(=O)Oc1cc(N)cc(-c2cnc(NC(C)C)c(=O)n2CC(=O)NCc2ccc(C(=N)N)cc2)c1.O=C(O)C(F)(F)F [Example 175] | < 4.52 | < 4.52 | <50.0 | > 7.00
CC(C)Nc1ncc(-c2cc(N)cc(C(=O)NCc3ccc(O)cc3)c2)n(CC(=O)NCc2ccc(C(=N)N)cc2)c1=O.O=C(O)C(F)(F)F [Example 176] | < 4.52 | < 4.52 | <50.0 | > 7.00
COc1cccc(CNC(=O)c2cc(N)cc(-c3cnc(NC(C)C)c(=O)n3CC(=O)NCc3ccc(C(=N)N)cc3)c2)c1.O=C(O)C(F)(F)F [Example 177] | < 4.52 | < 4.52 | <50.0 | > 7.00
N=C(N)c1ccc(CNC(=O)Cn2c(-c3cc(N)cc(O)c3)cnc(NC3CC3)c2=O)cc1.O=C(O)C(F)(F)F.O=C(O)C(F)(F)F [Example 179] | < 4.52 | < 4.52 | <50.0 | > 7.00
CC(C)Nc1ncc(-c2cc(N)cc(O)c2)n(CC(=O)NCc2ccc(C(=N)N)c(O)c2)c1=O.O=C(O)C(F)(F)F [Example 181, 2-[6-(3-amino-5-hydroxyphenyl)-3-(isopropylamino)-2-oxopyrazin-1 (2H)-yl]-N-{4-[amino(imino)methyl]-3-hydroxybenzyl}acetamide] | < 4.52 | < 4.52 | >50.0 | < 7.00
CC[C@@H](C)NC(=O)c1cc(N)cc(-c2cnc(NC(C)C)c(=O)n2CC(=O)NCc2ccc(C(=N)N)cc2OC)c1.O=C(O)C(F)(F)F.O=C(O)C(F)(F)F [Example 182, 3-amino-5-[1-[2-({4-[amino(imino)methyl]-2-methoxybenzyl}amino)-2-oxoethyl]-5-(isopropylamino)-6-oxo-1,6-dihydropyrazin-2-yl]-N-[(1R)-1-methylpropyl]benzamide] | > 4.52 | < 4.52 | <50.0 | > 7.00
CC[C@@H](C)NC(=O)c1cc(N)cc(-c2cnc(NC(C)C)c(=O)n2CC(=O)NCc2c(F)c(O)c(C(=N)N)c(F)c2F)c1.Cl.Cl [Example 185, 3-[1-[2-({4-[amino(imino)methyl]-2,3,6-trifluoro-5-hydroxybenzyl}amino)-2-oxoethyl]-5-(isopropylamino)-6-oxo-1,6-dihydropyrazin-2-yl]-N-[(1R)-1-methylpropyl]-5-aminobenzamide Dihydrochloride] | < 4.52 | < 4.52 | <50.0 | > 7.00
CC(C)Nc1ncc(-c2cc(N)cc(C(=O)NCc3ccc(F)c(O)c3)c2)n(CC(=O)NCc2ccc(C(=N)N)cc2)c1=O.O=C(O)C(F)(F)F [Example 186] | < 4.52 | < 4.52 | <50.0 | > 7.00
CCCCOC(=O)c1cc(N)cc(-c2cnc(NC(C)C)c(=O)n2CC(=O)NCc2ccc(C(=N)N)cc2)c1.O=C(O)C(F)(F)F [Example 187] | < 4.52 | < 4.52 | <50.0 | > 7.00
CC[C@H](C)NC(=O)c1cc(N)cc(-c2cnc(N[C@@H](C)C(C)C)c(=O)n2CC(=O)NCc2ccc(C(=N)N)cc2)c1.O=C(O)C(F)(F)F.O=C(O)C(F)(F)F [Example 190] | > 4.52 | < 4.52 | <50.0 | > 7.00
